The results in this text go back to ChEMBL document CHEMBL1152864, “Synthesis and anti-inflammatory activity of newer quinazolin-4-one derivatives” (Eur J Med Chem, 2009).

The subject of data set [1] is Rattus norvegicus. The experiment in a line: Antiinflammatory activity in Charles-Foster albino rat assessed as inhibition of carrageenan-induced hind paw edema at 50 mg/kg, po relative to control. It counts as functional. (In general: Carrageenan injected into the paw causes an acute inflammation.)
Data set [2] is described as follows: Acute toxicity in po dosed albino mouse. It counts as organism-based. The following applies: in vivo, read-out: ALD50.
Data set [3] deals with Rattus norvegicus. The data set can be described thus: Antiinflammatory activity in Charles-Foster albino rat assessed as inhibition of carrageenan-induced hind paw edema at 25 mg/kg, po relative to control. It counts as functional.
Data set [4] deals with Rattus norvegicus. The experiment in a line: Antiinflammatory activity in Charles-Foster albino rat assessed as inhibition of carrageenan-induced hind paw edema at 100 mg/kg, po relative to control. It counts as functional.

The inhibition in vivo is the percentage by which the read-out fell short of the control. In the case of `O=C1C(Cl)C(c2ccccc2)N1n1c(CSc2nnc(-c3ccncc3)o2)nc2ccc(Br)cc2c1=O` (stereo not drawn), in the data set on Rattus norvegicus [1], the inhibition in vivo at 50 mg/kg was found to be 26.3%. Moreover, the LD50 in data set [2] was more than 1000 mg/kg.
Regarding `O=c1c2cc(Br)ccc2nc(CSc2nnc(-c3ccncc3)o2)n1/N=C/c1ccccc1`, the inhibition in vivo at 50 mg/kg in the data set on Rattus norvegicus [1] turned out to be 19.4%. For the same compound, the LD50 in data set [2] was more than 1000 mg/kg.
Take `COc1ccc(/C=N/n2c(CSc3nnc(-c4ccncc4)o3)nc3ccccc3c2=O)cc1`: the inhibition in vivo at 50 mg/kg in the data set with Rattus norvegicus [1] stood at 20%. The LD50 in data set [2] is more than 1000 mg/kg.
Turning to `COc1ccc(C2C(Cl)C(=O)N2n2c(CSc3nnc(-c4ccncc4)o3)nc3ccc(Br)cc3c2=O)cc1` (stereo not drawn), the inhibition in vivo at 50 mg/kg in the data set with Rattus norvegicus [1] amounted to 28.6%. In addition, the LD50 in data set [2] is more than 1000 mg/kg.
Consider `O=C1CSC(c2ccc(Cl)cc2)N1n1c(CSc2nnc(-c3ccncc3)o2)nc2ccc(Br)cc2c1=O` (stereo not drawn), for which the inhibition in vivo at 50 mg/kg in the data set with Rattus norvegicus [1] turned out to be 25.2%. The inhibition in vivo at 25 mg/kg with Rattus norvegicus [3] was 25.2%. Besides, the inhibition in vivo at 100 mg/kg with Rattus norvegicus [4] was found to be 66.9%. Also, in data set [2], the LD50 was more than 1000 mg/kg.
Consider `O=C1CSC(c2ccccc2)N1n1c(CSc2nnc(-c3ccncc3)o2)nc2ccc(Br)cc2c1=O` (stereo not drawn), for which the inhibition in vivo at 50 mg/kg in the data set with Rattus norvegicus [1] stood at 31.3%. For the same compound, the LD50 in data set [2] is more than 1000 mg/kg.
In the case of `O=C1C(Cl)C(c2ccc(Cl)cc2)N1n1c(CSc2nnc(-c3ccncc3)o2)nc2ccccc2c1=O` (stereo not drawn), in the data set with Rattus norvegicus [1], the inhibition in vivo at 50 mg/kg turned out to be 27.9%. Also, the LD50 in data set [2] is more than 1000 mg/kg.
As for `O=c1c2ccccc2nc(CSc2nnc(-c3ccncc3)o2)n1/N=C/c1ccccc1`, the inhibition in vivo at 50 mg/kg with Rattus norvegicus [1] was 16.3%. Further, the LD50 in data set [2] was more than 1000 mg/kg.
Consider `COc1ccc(C2SCC(=O)N2n2c(CSc3nnc(-c4ccncc4)o3)nc3ccc(Br)cc3c2=O)cc1` (stereo not drawn), for which, in the data set on Rattus norvegicus [1], the inhibition in vivo at 50 mg/kg stood at 35.3%. Further, the LD50 in data set [2] was more than 1000 mg/kg.
Take `O=c1c2cc(Br)ccc2nc(CSc2nnc(-c3ccncc3)o2)n1/N=C/c1ccc(O)cc1`: the inhibition in vivo at 50 mg/kg with Rattus norvegicus [1] was determined as 22.3%. Further, the LD50 in data set [2] was more than 1000 mg/kg.
With `O=c1c2ccccc2nc(CSc2nnc(-c3ccncc3)o2)n1/N=C/c1ccc(O)cc1`, the inhibition in vivo at 50 mg/kg in the data set with Rattus norvegicus [1] turned out to be 18.2%. Further, the LD50 in data set [2] was more than 1000 mg/kg.
Taken in the same sequence, the figures for `O=C1C(Cl)C(c2ccc(O)cc2)N1n1c(CSc2nnc(-c3ccncc3)o2)nc2ccccc2c1=O` (stereo not drawn) were 25.7% and more than 1000 mg/kg.
For the compound `O=C1C(Cl)C(c2ccc(Cl)cc2)N1n1c(CSc2nnc(-c3ccncc3)o2)nc2ccc(Br)cc2c1=O` (stereo not drawn), the inhibition in vivo at 50 mg/kg in the data set with Rattus norvegicus [1] was determined as 29.9%. Besides, the LD50 in data set [2] is more than 1000 mg/kg.
In the case of `O=C1CSC(c2ccc(Cl)cc2)N1n1c(CSc2nnc(-c3ccncc3)o2)nc2ccccc2c1=O` (stereo not drawn), the inhibition in vivo at 50 mg/kg in the data set on Rattus norvegicus [1] amounted to 34.1%. In data set [2], the LD50 is more than 1000 mg/kg.
Taken in the same sequence, the figures for `COc1ccc(/C=N/n2c(CSc3nnc(-c4ccncc4)o3)nc3ccc(Br)cc3c2=O)cc1` were 24.4% and more than 1000 mg/kg.
For the compound `COc1ccc(C2C(Cl)C(=O)N2n2c(CSc3nnc(-c4ccncc4)o3)nc3ccccc3c2=O)cc1` (stereo not drawn), the inhibition in vivo at 50 mg/kg with Rattus norvegicus [1] stood at 26.1%. Besides, the LD50 in data set [2] was more than 1000 mg/kg.
As to `O=C1CSC(c2ccccc2)N1n1c(CSc2nnc(-c3ccncc3)o2)nc2ccccc2c1=O` (stereo not drawn), the inhibition in vivo at 50 mg/kg with Rattus norvegicus [1] stood at 30.1%. Further, the LD50 in data set [2] is more than 1000 mg/kg.
As to `O=c1c2cc(Br)ccc2nc(CSc2nnc(-c3ccncc3)o2)n1/N=C/c1ccc(Cl)cc1`, the inhibition in vivo at 50 mg/kg in the data set on Rattus norvegicus [1] was 26.4%. In addition, the LD50 in data set [2] is more than 1000 mg/kg.
`CCCCC1C(=O)N(c2ccccc2)N(c2ccccc2)C1=O` [PHENYLBUTAZONE]: in the data set on Rattus norvegicus [1], the inhibition in vivo at 50 mg/kg came out at 36.8%. For the same compound, in the data set with Rattus norvegicus [3], the inhibition in vivo at 25 mg/kg worked out at 25.4%. For the same compound, the inhibition in vivo at 100 mg/kg in the data set with Rattus norvegicus [4] is 66.4%.
As to `COc1ccc(C2SCC(=O)N2n2c(CSc3nnc(-c4ccncc4)o3)nc3ccccc3c2=O)cc1` (stereo not drawn), in the data set with Rattus norvegicus [1], the inhibition in vivo at 50 mg/kg was 33.8%. Moreover, the LD50 in data set [2] is more than 1000 mg/kg.
Take `O=C1CSC(c2ccc(O)cc2)N1n1c(CSc2nnc(-c3ccncc3)o2)nc2ccccc2c1=O` (stereo not drawn): in the data set on Rattus norvegicus [1], the inhibition in vivo at 50 mg/kg is 31.7%. Moreover, the LD50 in data set [2] is more than 1000 mg/kg.
For `O=C1CSC(c2ccc(O)cc2)N1n1c(CSc2nnc(-c3ccncc3)o2)nc2ccc(Br)cc2c1=O` (stereo not drawn) the same measures were 32.7% and more than 1000 mg/kg.
As for `O=c1c2ccccc2nc(CSc2nnc(-c3ccncc3)o2)n1/N=C/c1ccc(Cl)cc1`, the inhibition in vivo at 50 mg/kg in the data set with Rattus norvegicus [1] was determined as 23.7%. The LD50 in data set [2] is more than 1000 mg/kg.
With `O=C1C(Cl)C(c2ccccc2)N1n1c(CSc2nnc(-c3ccncc3)o2)nc2ccccc2c1=O` (stereo not drawn), the inhibition in vivo at 50 mg/kg in the data set on Rattus norvegicus [1] turned out to be 25.1%. In addition, the LD50 in data set [2] is more than 1000 mg/kg.
Turning to `O=C1C(Cl)C(c2ccc(O)cc2)N1n1c(CSc2nnc(-c3ccncc3)o2)nc2ccc(Br)cc2c1=O` (stereo not drawn), in the data set with Rattus norvegicus [1], the inhibition in vivo at 50 mg/kg was found to be 27.4%. In addition, the LD50 in data set [2] is more than 1000 mg/kg.
